Data as given in US20260284240A1, “RADIOLABELED COMPOUND FOR USE IN A METHOD OF TREATING CARBONIC ANHYDRASE IX POSITIVE DISEASES” (DEBIOPHARM INTERNATIONAL S.A., priority 2023, published 2026).
Starred links: 1 amine or outer side, 2 acyl side, 3 side chain; linkers in the order of their positions; H or OH if unused. Positions of bridges follow the written chain, without caps; N, C: chain ends. Non-standard residues stand in square brackets, D forms with d. Residues, ends and D or L forms follow the SMILES beside them. *: point of attachment. Phe(3-NHCO(CH2)3SO2NH2) = N[C@@H](Cc1cccc(NC(=O)CCCS(N)(=O)=O)c1)C(=O)O; DOTA = O=C(O)CN1CCN(CC(=O)O)CCN(CC(=O)*)CCN(CC(=O)O)CC1; mXylylene = c1cc(C[*:1])cc(C[*:2])c1; X1 = O=C(CN1CCN([*:1])CC1)[*:2]

Assay: GLP extended single-dose i.v. toxicity study in beagle dogs
Type: in vivo, dog
Procedure: The following parameters and endpoints were evaluated: mortality, clinical observations, body weights, food consumption, body temperature, local reactions, ophthalmology, clinical pathology parameters (hematology, coagulation, clinical chemistry, and urinalysis), cardiovascular and respiratory safety pharmacology endpoints along with FOB evaluation, organ weights, and macroscopic and microscopic examinations, and TK parameters. The animals from subset A (3 males and 3 females per group) were sampled for toxicokinetics (TK) at: pre-dose, 5 min, 15 min, 30 min, 1 h, 2 h, 3 h and 6 h. Blood samples were collected in K2EDTA tubes. Plasma was prepared by centrifugation (2500 g for 10 minutes, +4° C.) within 1 hour after collection, and then frozen within 1 hour after centrifugation and stored at −80° C. […] Chromatographic separation was achieved using a Waters Acquity UPLC system with a Waters Acquity HSS T3 C18 2.1×50 mm, 1.8 μm column. Chromatography was conducted at 50° C. at a flow rate of 0.7 mL/min using a mobile phase consisting of A: 1% formic acid in acetonitrile, and B: 1% formic acid in water, according to the following linear gradient: 0 to 0.1 min: 90% B; 0.1 to 4.1 min: from 90% B to 74% B; 4.1 to 4.2 min: from 74% B to 5% B; 4.2 to 4.6 min: 5% B; 4.6 to 4.7 min: from 5% B to 90% B; 4.7-5.1 min; 90% B. Detection was performed using a Sciex AP16600 TOF mass spectrometer. Toxicokinetic parameters were estimated from concentration-time data using Phoenix pharmacokinetic software (version 6.4, Certara L.P.). A non-compartmental approach consistent with the bolus intravenous injection was used for parameter estimation.

SMILES: CC(C)C[C@@H]1NC(=O)[C@H](Cc2cccc(NC(=O)CCCS(N)(=O)=O)c2)NC(=O)[C@H](CC(=O)O)NC(=O)[C@H]2CCCN2C(=O)[C@H](CCC(=O)O)NC(=O)[C@@H](NC(=O)[C@H](CCC(N)=O)NC(=O)CN2CCN(C(=O)CN3CCN(CC(=O)O)CCN(CC(=O)O)CCN(CC(=O)O)CC3)CC2)CSCc2cccc(c2)CSC[C@@H](C(N)=O)NC(=O)[C@H](CO)NC(=O)[C@H](Cc2c[nH]c3ccccc23)NC(=O)[C@H]([C@@H](C)O)NC1=O [DPI-4452, DOTA-PPAc-Gln-[Cys(3MeBn)-Glu-pro-Asp-Af3(Cpsu)-Leu-Thr-Trp-Ser-Cys]-NH2] ({DOTA}-[X1]QCE[dP]D[Phe(3-NHCO(CH2)3SO2NH2)]LTWSC-NH2; linker 3-12 via mXylylene)
- Human equivalent dose of the dog NOAEL (considering a 60 kg human): 13.3 mg
- Clinical signs or local reactions (dog, single i.v. 16, 80, 400 μg/kg): no DPI-4452 treatment-related clinical signs or local reactions were observed
- Tolerability (dog, single i.v. bolus up to 400 μg/kg): well tolerated
